Measurements from US20050058658A1, “Compositions and methods for immunotherapy of human immunodeficiency virus (HIV)” (priority 2003, published 2005).
Where no end group is shown, it is not given here.

Columns and labels:
[1] = system: freshly isolated dendritic cells (CD11c+ splenocytes); assay: Dendritic cell (DC) assay: IL-12 release; type: cell-based, BALB/c mice; conditions: for DC/mIL12 Release: tested for synergism and inhibition
Source text: In a preferred embodiment, dendritic cell (DC) assay is used to follow interleukin-12 (IL-12) release from freshly isolated dendritic cells as an index of DC activation (see section 13). […] Briefly, by way of example but not limitation, a DC assay can be carried out as follows: freshly isolated dendritic cells (CD11c^+ splenocytes, e.g., isolated from the spleens of BALB/c mice within ten hours of assaying the activity) are suspended at a density of 0.5×10^6 cells per mL in cytokine supplemented culture media (GM-CSF, 1.0 ng/ml; IL-4, 1.0 ng/ml; IFNg, 3 ng/ml; anti mouse CD40; 0.5 mg/ml). […] Mouse IL-12 release from the dendritic cells (CD11c^+ splenocytes) is then measured using ELISA.
DCs were isolated from the spleens of male BALB/c mice 8-12 weeks of age (Harlan Bioproducts for Science, Indianapolis, Ind.), using the magnetic assisted cell separation (MACS) system purchased from Miltenyi Biotech. In summary: Spleens were aseptically removed from mice and placed into a petri dish containing 5 mL holding media (DMEM/F12 supplemented with 10% FCS and antibiotics). Each spleen was then injected with ˜0.5 mls collagenase D solution (1 mg/mL in 10 mM Hepes-NaOH, pH 7.4, 150 mM NaCl, 5 mM MgCl2, 1.8 mM CaCl2), placed into 5-10 mL collagenase D, cut into 5-6 pieces and incubated at 37° C. for 45-60 min. Collagenase-digested spleens were then processed with glass slides and passed through a 70 μm nylon mesh cell strainer. After the strainer was flushed with 40 mL culture media, cells were centrifuged (8 min @ 200×G), suspended in 1 mL PBS and subjected to red blood cell lysis by incubating the cell suspension for 5 min at room temperature in 10 mL lysis buffer (155 mM NH4Cl, 10 mM KHCO3, 0.1 mM EDTA), followed by dilution in PBS to 50 mL and centrifugation (8 min @ 200×g). The splenocytes were then suspended in 10 mL MACS buffer (PBS pH 7.2, supplemented with 2 mM EDTA and 0.5% BSA), passed through a 40 μm nylon mesh cell strainer which was flushed with 40 mL MACS buffer. A preliminary cell count was taken at this time, prior to centrifugation (8 min @ 200×G). The splenocytes were suspended at a density of 10^8 cells per 400 μL MACS buffer. Paramagnetic MicroBeads coated with anti-CD11c antibody were mixed with the splenocyte suspension (100 μL per 10^8 cells), incubated at +4° C. for 15 min, washed, suspended in 1.0 mL MACS buffer and passed through a MS+separation column placed within a strong magnetic field. CD11c^+ cells were retained in the column whereas CD11c^− cells were washed off the column as the flow-through cell fraction. CD11c^+ cells were then collected by removing the column out of the magnetic field and flushing the column twice with 1 mL of MACS buffer. CD11c^+ cells were washed once with culture media and suspended at a density of 0.5×10^6 cells per mL in cytokine supplemented culture media {DMEM/F12 supplemented with 10% FCS and gentamicin containing mouse GM-CSF (1 ng/mL), mouse IL-4 (1 ng/mL), mouse IFNγ (3 ng/mL) and anti mouse CD40 (0.5 mg/mL)}.
Mouse IL12 release from CD11c^+ splenocytes was measured using ELISA. Briefly, CD11c+ cell culture supernatants were sampled following an overnight incubation (usually 15-18 hrs). Media samples (100 μL) were added to ELISA plates coated with anti mouse IL12 (p70) capture antibody (R&D #MAB419; 250 ng in 100 μL per well) and incubated either at 37° C. or room temperature for 2 hrs. The ELISA plates were washed extensively with wash buffer after which 100 μL per well of detection antibody/detection reagent (biotinylated anti-mouse IL12; R&D #BAF419 at 50 ng/mL and streptavidin-HRP) was added. The ELISA plates were again incubated for 2 hours, washed and exposed to […] substrate solution (Pierce #34021) for 20 min. The substrate reaction was stopped by adding 100 μL/well 2M H2SO4. ELISA plates were read at 450 nm (corrected at 540 nm) and mIL12(p70) levels were calculated using an intra-ELISA standard curve (range: 2000-31.25 pg/mL).

Mouse sarcoma 180 cells = type: cell-based; conditions: for NK-CMC Activity: wide range of concentrations, in the presence and absence of IL-2 (125 U/ml)
Experimental: In one embodiment, a NK cell assay is used to assess ARP-induced cytotoxic activity of NK-like cells. Briefly, by way of example but not limitation, a NK cell assay can be carried out as follows: large granular lymphocytes (LGLs) are co-cultured with tumor cells at various ratios (effector to target ratio) for four days at 37° C., 5% CO2. […] The culture is terminated at the end of day 4 and vitally stained using a MTT cell viability quantification assay (see Mossman, T. J. Immunol. Methods 1983, 65:55; and Sigma Chemical MTT (M5655) product application note). Culture media is aspirated and the remaining cells are washed and replaced with DMEM/F12 plus FCS, containing MTT. The cells are further incubated for 4-5 hours at 37° C. Absorbance is measured with the aid of a plate reader. Decreased absorbance indicated a decrease in the number of viable cells per well (i.e., cytotoxicity). Absorbance is measured again after the MTT is solubilized by replacement of the medium with 2-propanol containing HCl, which gives a uniform color throughout the well. NK-inducing activity is calculated relative to negative (PBS/BSA) and positive (internal standard) controls.
Spleens (10-15 per experiment) were aseptically removed from male Balb/C mice 6-10 weeks of age. Splenocytes were “squeezed” out of spleens using 2 sterile glass microscope slides. Cells were collected in approximately 10 ml of DMEM/F12 containing 10% fetal calf serum (FCS) and gentamicin (50 μg/ml). Single cell suspensions were generated by passing collected cells through a 70 μm nylon mesh screen. After washing the cell pellet once with PBS (centrifuged at 675×g for 5 min), red blood cells were lysed by brief hypotonic shock (i.e. exposure to sterile distilled, deionized water, followed immediately with appropriate volumes of 10×PBS to return to isotonicity). Remaining cells were centrifuged and resuspended in DMEM/F12+10% FCS and transferred to 75 cm^2 flasks each containing 25 mls DMEM/F12+10% FCS (cells from 5 spleens per flask). The cells were incubated for 60 min. at 37° C. to selectively remove readily adherent cells (mainly fibroblasts and macrophages). After the incubation, the flasks were gently shaken and the non-adherent cells were removed, pelleted by centrifugation, and resuspended in DMEM/F12 (no supplements) (1.0 mL/10^8 cells). A 1.0 mL volume of these cell suspensions were carefully layered onto a 70%/60%/40% (2 mL/4 mL/4 mL) Percoll™ gradients in 15 ml centrifuge tubes and centrifuged for 30 min at 675×G. The cells which sediment at the 40/60 interface represent primarily large granular lymphocytes (LGLs), enriched with NK cells. These cells were carefully removed with a pasteur pipet, centrifuged, washed once with PBS and resuspended in approximately 5 mL DMEM/F12 supplemented with gentamicin (50 μg/mL) and 10% fetal calf serum. Cell counts and appropriate dilutions of LGL cells were made with these cells, as described below. For convenience this LGL cell preparation is interchangeably referred to as NK cells.
Mouse sarcoma 180 cells were seeded into 96 well plates at a density of 5×10^3 cells per well in 100 μl DMEM/F12, supplemented with 10% FCS and gentamicin (50 μg/mL). […] NK cells were added in 100 μL of supplemented DMEM/F12 at designated densities: 0 NK cells/well; 5×10^4 NK cells/well (1:10 target/effector ratio); 1.25×10^5 NK cells/well (1:25 target/effector ratio); 2.5×10^5 NK cells/well (1:50 target/effector ratio); and, 5×10^5 NK cells/well (1:100 target/effector ratio). (Note: routinely, only the 1:50 and 1:100 ratios were used for screening purposes. IL2 was added as a media supplement with final concentration of 125 U/mL.). Co-cultures were incubated for 4 days at 37° C., 5% CO2, and terminated and vitally stained using a MTT cell viability quantification assay (see Mossman, T. J. Immunol. Methods 65:55 (1983); and Sigma Chemical MTT (M5655) product application note). […]

[Ca+2].[Cl-].[Cl-] [CaCl2]
Inhibition of DC-activity induced by crude ARP preparations [1]: did not

[Cl][Cu][Cl] [CuCl2]
Inhibition of DC-activity induced by crude ARP preparations [1]: inhibition of activity in mM-μM concentration range

[Cl-].[Cl-].[Mg+2] [MgCl2]
Inhibition of DC-activity induced by crude ARP preparations [1]: did not

[Cl-].[Cl-].[Zn+2] [ZnCl2]
Inhibition of DC-activity induced by crude ARP preparations [1]: inhibition of activity in mM-μM concentration range

Cecropin A: defensin / anti-microbial peptide (KWKLFKKIEKVGQNIRDGIIKAGPAVAVVGQATQIAK; UniProt P01507 27-63, looked up)
NK-CMC Activity (Mouse sarcoma 180 cells): −

Cecropin B: defensin / anti-microbial peptide (KWKVFKKIEKMGRNIRNGIVKAGPAIAVLGEAKAL; ends and bridges not checked; UniProt P01508 27-61, looked up)
NK-CMC Activity (Mouse sarcoma 180 cells): −

Cecropin P1
NK-CMC Activity (Mouse sarcoma 180 cells): −

FGFbasic: growth factor
DC/mIL12 Release [1]: −
NK-CMC Activity (Mouse sarcoma 180 cells): −

IFNα
NK-CMC Activity (Mouse sarcoma 180 cells): −

IL-15: interleukin
NK-CMC Activity (Mouse sarcoma 180 cells): −

JE/MCP-1: chemokine
NK-CMC Activity (Mouse sarcoma 180 cells): −

Magainin I
NK-CMC Activity (Mouse sarcoma 180 cells): −

Magainin II
NK-CMC Activity (Mouse sarcoma 180 cells): −

TGFα: growth factor
NK-CMC Activity (Mouse sarcoma 180 cells): −

B1: KC: chemokine (protein, UniProt P12850 25-96, looked up)
Growth-regulated alpha protein: APIANELRCQCLQTMAGIHLKNIQSLKVLPSGPHCTQTEVIATLKNGREACLDPEAPLVQKIVQKMLKGVPK
NK-CMC Activity (Mouse sarcoma 180 cells): −

B2: IL-18: interleukin (protein, UniProt P70380 36-192, looked up)
Interleukin-18: NFGRLHCTTAVIRNINDQVLFVDKRQPVFEDMTDIDQSASEPQTRLIIYMYKDSEVRGLAVTLSVKDSKMSTLSCKNKIISFEEMDPPENIDDIQSDLIFFQKRVPGHNKMEFESSLYEGHFLACQKEDDAFKLILKKKDENGDKSVMFTLTNLHQS
DC/mIL12 Release [1]: −

B3: IL-12: Interleukin 12 (protein, UniProt P43431 23-215; P43432 23-335, looked up)
Interleukin-12 subunit alpha: RVIPVSGPARCLSQSRNLLKTTDDMVKTAREKLKHYSCTAEDIDHEDITRDQTSTLKTCLPLELHKNESCLATRETSSTTRGSCLPPQKTSLMMTLCLGSIYEDLKMYQTEFQAINAALQNHNHQQIILDKGMLVAIDELMQSLNHNGETLRQKPPVGEADPYRVKMKLCILLHAFSTRVVTINRVMGYLSSA
Interleukin-12 subunit beta: MWELEKDVYVVEVDWTPDAPGETVNLTCDTPEEDDITWTSDQRHGVIGSGKTLTITVKEFLDAGQYTCHKGGETLSHSHLLLHKKENGIWSTEILKNFKNKTFLKCEAPNYSGRFTCSWLVQRNMDLKFNIKSSSSSPDSRAVTCGMASLSAEKVTLDQRDYEKYSVSCQEDVTCPTAEETLPIELALEARQQNKYENYSTSFFIRDIIKPDPPKNLQMKPLKNSQVEVSWEYPDSWSTPHSYFSLKFFVRIQRKKEKMKETEEGCNQKGAFLVEKTSTEVQCKGGNVCVQAQDRYYNSSCSKWACVPCRVRS
Effect on NK-CMC (footnotes of Table 16) (Mouse sarcoma 180 cells): synergistically increases NK-CMC at low concentrations of IL-2

B4: IL-11: interleukin (protein, UniProt P20809 22-199, looked up)
Interleukin-11: PGPPPGPPRVSPDPRAELDSTVLLTRSLLADTRQLAAQLRDKFPADGDHNLDSLPTLAMSAGALGALQLPGVLTRLRADLLSYLRHVQWLRRAGGSSLKTLEPELGTLQARLDRLLRRLQLLMSRLALPQPPPDPPAPPLAPPSSAWGGIRAAHAILGGLHLTLDWAVRGLLLLKTRL
NK-CMC Activity (Mouse sarcoma 180 cells): −

B5: IL-4: interleukin (protein, UniProt P07750 21-140, looked up)
Interleukin-4: HIHGCDKNHLREIIGILNEVTGEGTPCTEMDVPNVLTATKNTTESELVCRASKVLRIFYLKHGKTPCLKKNSSVLMELQRLFRAFRCLDSSISCTMNESKSTSLKDFLESLKSIMQMDYS
NK-CMC Activity (Mouse sarcoma 180 cells): −

B6: IL-7: interleukin (protein, UniProt P10168 26-154, looked up)
Interleukin-7: ECHIKDKEGKAYESVLMISIDELDKMTGTDSNCPNNEPNFFRKHVCDDTKEAAFLNRAARKLKQFLKMNISEEFNVHLLTVSQGTQTLVNCTSKEEKNVKEQKKNDACFLKRLLREIKTCWNKILKGSI
NK-CMC Activity (Mouse sarcoma 180 cells): −

B7: MIP-1α: chemokine (protein, UniProt P10855 24-92, looked up)
C-C motif chemokine 3: APYGADTPTACCFSYSRKIPRQFIVDYFETSSLCSQPGVIFLTKRNRQICADSKETWVQEYITDLELNA
NK-CMC Activity (Mouse sarcoma 180 cells): −
